{
  "source": "paper PMC5754397",
  "about": "“Population pharmacokinetics of nintedanib, an inhibitor of tyrosine kinases, in patients with non-small cell lung cancer or idiopathic pulmonary fibrosis” (Cancer Chemotherapy and Pharmacology, 2017)",
  "key": {"[1]": {"test": "Population pharmacokinetic analysis in healthy subjects after intravenous administration of nintedanib (one-compartment model)", "format": "in vivo, human", "details": "human, plasma, estimate (RSE%)", "from_the_text": "The pharmacokinetic profile of BIBF 1202 was best described by a one-compartment model with first-order elimination (see Online Resource Fig. S1 for model structure). To account for formation of BIBF 1202 in the intestine or via hepatic first-pass effect, a first-order absorption with lag time (ALAG2) was implemented as per nintedanib absorption. The relative bioavailability (F2) and the absorption-rate constant (k a2) were implemented as functions of nintedanib F1 and k a, respectively (substantial drop in OFV as compared to a model, where F2 and k a2 were estimated independently of F1 and k a). This parametrization accounted for correlations between nintedanib and BIBF 1202 parameters and replaced the full variance–covariance matrix which was not applied due to the sequential modeling approach used. The rate of formation of BIBF 1202 (k met) during nintedanib systemic elimination was accounted by defining it as a function of nintedanib clearance: k met = CL/V2*ffM, where CL and V2 denote the clearance and central volume of distribution of nintedanib respectively, and ffM denotes the proportion of the nintedanib elimination resulting in BIBF 1202 formation. Due to the lack of data for BIBF 1202 given as an intravenous (IV) infusion, several parameter estimates were not identifiable (ffM, BIBF 1202 apparent volume of distribution [V3/F]) and were, therefore, fixed. The value for ffM was derived from pharmacokinetic data after IV administration of nintedanib (Online Resource Table S4) and the ratio of V3/F–V2/F was fixed based on information observed in rats. […] In addition to the (inter-individual) variability of F2 induced by the variability in F1 (F2 being proportional to F1), additional IIV could be implemented for F2.\nTable S4 Structural parameters for nintedanib and BIBF 1202 from a population pharmacokinetic analysis based on healthy subjects (n=23^a, 372 observations) after intravenous administration of nintedanib\nOne subject (3 mg dose) was excluded from analysis due to increasing plasma concentrations of nintedanib after end of infusion"}, "[2]": {"details": "cited from earlier work"}, "[3]": {"details": "Phase I trial; cited from earlier work"}, "[4]": {"set-up": "method as in ref 13, 21, 22 = [13]; 13. Boehringer Ingelheim (2017) OFEV® (nintedanib) capsules, for oral use; Prescribing information, revised: 08/2017. http://docs.boehringer-ingelheim.com/Prescribing%20Information/PIs/Ofev/ofev.pdf . || [21]; 21. Boehringer Ingelheim (2013) Relative bioavailability of nintedanib given alone and in combination with ketoconazole at steady state in healthy male volunteers (an open-label, randomised, two-way c || [22]; 22. Boehringer Ingelheim (2013) Relative bioavailability of a single oral dose of nintedanib given alone and in combination with multiple oral doses of rifampicin in healthy male volunteers (an open-l)", "details": "cited from earlier work"}, "[5]": {"set-up": "method as in ref 34 = [34]; 34. Boehringer Ingelheim (2015) Pharmacokinetics, safety and tolerability of nintedanib single oral dose in male and female patients with different degrees of hepatic impairment (Child-Pugh classifica)", "details": "Child–Pugh classification, subjects with liver cirrhosis; cited from earlier work"}, "[6]": {"set-up": "method as in PMID 20460487, PMID 25299232", "details": "cited from earlier work"}, "[7]": {"system": "idiopathic pulmonary fibrosis (IPF)", "set-up": "method as in PMID 21992121, PMID 24836310", "details": "patients with IPF, 52-week treatment period; cited from earlier work"}},
  "data": [
    {"smiles": "COC(=O)c1ccc2c(c1)NC(=O)/C2=C(\\Nc1ccc(N(C)C(=O)CN2CCN(C)CC2)cc1)c1ccccc1", "note": "[nintedanib]", "values": [
      {"measurement": "clearance", "setting": "[1]; healthy subjects (n=23), single intravenous nintedanib infusion 1, 3 or 6 mg, data of absolute bioavailability study [7], read-out: CL, total body clearance for nintedanib (converted)", "result": 2570, "unit": "mL/min"},
      {"measurement": "Vd", "setting": "[1]; healthy subjects, intravenous nintedanib, read-out: V2, volume of distribution for nintedanib", "result": 60.9, "unit": "L"},
      {"measurement": "absolute bioavailability", "setting": "[2]", "result": "about 5%"},
      {"measurement": "dose proportionality of total and peak systemic exposures", "setting": "[2]", "result": "dose-proportional"},
      {"measurement": "geometric mean terminal elimination half-life", "setting": "[2]", "result": "10 to 15", "unit": "h"},
      {"measurement": "total fraction of nintedanib and its metabolites absorbed", "setting": "[2]; estimated", "result": 23, "unit": "%"},
      {"measurement": "time of peak plasma concentrations after oral dosing", "setting": "[2]; patients with solid tumors", "result": "2 to 4", "unit": "h"},
      {"measurement": "time to steady state", "setting": "[2]; twice-daily dosing", "result": "≤ 7", "unit": "days"},
      {"measurement": "increase of exposure (AUC0−∞) by food", "setting": "[3]", "result": 20, "unit": "%"},
      {"measurement": "increase of maximum plasma concentrations (Cmax) by food", "setting": "[3]", "result": 20, "unit": "%"},
      {"measurement": "increase of nintedanib exposure on co-administration with ketoconazole", "setting": "[4]; 400 mg ketoconazole (potent P-gp inhibitor)", "result": 60, "unit": "%"},
      {"measurement": "decrease of nintedanib exposure on co-administration with rifampicin", "setting": "[4]; 600 mg rifampicin (potent P-gp inducer)", "result": 50, "unit": "%"},
      {"measurement": "increase in nintedanib exposure, mild hepatic impairment", "setting": "[5]", "result": "~2", "unit": "fold"},
      {"measurement": "increase in nintedanib exposure, moderate hepatic impairment", "setting": "[5]", "result": "~8", "unit": "fold"},
      {"measurement": "pharmacokinetic interaction between nintedanib and either docetaxel or pemetrexed", "setting": "[6]", "result": "no significant pharmacokinetic interaction"},
      {"measurement": "rate of decline in forced vital capacity", "setting": "[7]", "result": "significant reduction"}
    ]}
  ]
}
